Reference: patent US6696433B2, “Use of sex steroids function modulators to treat wounds and fibrotic disorders” (Renovo Limited, priority 1996, dated 2004)

Assays:
wound repair = test: Supplementation of individuals with DHEA, wound healing in the aged; format: in vivo
[1] = tested on: full thickness incisional wounds; test: Incisional wound healing in OVX and sham rats, histology at day 7 post-wounding; format: in vivo, Female Sprague Dawley rats; set-up: key to NEW COLLAGEN / CELLS: + = little/few; ++++ = lots); key to EPITHELIALISATION: Y = epithelialised
Excerpt: Female Sprague Dawley rats were housed together in three groups (1A, 1B and 1C) of nine to allow for synchronised oestrus cycling. Group 1A were ovariectomised (OVX) 18 days prior to wounding to allow circulating sex hormone levels to be eliminated. Group 1B (control) were untreated and Group 1C had the same operative procedure as the OVX (Group 1A), but without the removal of the ovaries, to ensure that the OVX operative procedure had no effect on the wounding studies (sham).
17 β-oestradiol (Sigma) was prepared as sterile 0.1% and 1% solutions in phosphate buffered saline (PBS) containing 0.1% and 1% 2-hydroxypropyl-β-cyclodextrin respectively, 2-hydroxypropyl-β-cyclodextrin is used in preparations as a carrier molecule to increase the water solubility of β-oestradiol. PBS/cyclodextrin was used as a vehicle control.
Animals from Groups 1A, 1B and 1C were given 4×1 cm length full thickness incisional wounds at 4.5-5.5 cm and 7.5-8.5 cm below the base of the skull, 1 cm either side of the midline. A single 100 μl intradermal injection was then given at each of the four wound sites. Each of the wounds (a total of 36 wounds on 9 rats in each group) received either 100 μl of oestradiol (0.1% or 1%), 100 μl of vehicle control (0.1% or 1% cyclodextrin) or was left unmanipulated (no injection).
The wounds were allowed to heal for 7 days after which the wounded tissue was excised for histological analysis.
7 μm paraffin-embedded sections were stained with H&E and Masson's Trichrome. The rate of re-epithelialisation (at day 7 post-wounding), and wound sizes as determined by planimetry, were determined with image analysis using an Olympus Vanox camera and PC image capture system. Collagen quantity within the wound was determined by two observers blinded to the identity of the specimen.

[2] = tested on: 4 mm punch biopsy wounds of the upper inner arm; test: Topical oestrogen patch clinical trial of wound healing in elderly men and women; format: in vivo, human; settings: patch applied to the wound for 24 hours post-wounding
Description: Approval for this study was given by the local Ethics Committee. Forty health-status defined volunteers split into four groups: (i) GROUP 3A comprised ten women with mean age 76.3 yr (Sd 5.6) who received oestrogen supplements (25 μg/24 hrs of oestradiol) (ii) GROUP 3B comprised ten women with mean age 72.5 yr (Sd 7.1) who received placebo instead of oestrogen. (iii) GROUP 3C comprised ten men with mean age 69.6 yr (Sd 3.6) who received oestrogen supplements (ii) GROUP 3D comprised ten men with mean age 71.8 yr (Sd 8.9) who received placebo instead of oestrogen. After informed consent subjects from each of Groups 3A, 3B, 3C and 3D underwent two 4 mm punch biopsies from the upper inner arm (a non sun-exposed site) following local infiltration with 1 ml 1% lignocaine. Each biopsy of normal skin was bisected and one-half embedded in Optimal Cutting Temperature compound (Miles Inc. Elkhart, Ind.), frozen over liquid nitrogen, and stored at −70° C., and one-half snap-frozen in liquid nitrogen and stored at −70° C. The area for biopsy was covered by a 2×3 cm patch (placebo Groups 3B and 3D or active oestradiol 3A and 3C) through which the biopsies were made. The patch was covered by a Multisorb dry gauze dressing (Smith & Nephew) and both were removed after 24 hrs. The active patches contained sufficient oestradiol such that the wound sites were exposed to 25 μg/24 hrs of oestradiol. Five subjects from Groups 3A, 3B, 3C and 3D underwent re-excision of the wounds at day 7 post-wounding, and the other five subjects from each group at day 84 post-wounding. The left upper inner arm was cleaned with isopropyl alcohol, elliptical excisions of the wounds were made following 1% lignocaine infiltration and two sutures were used to close the gap. Each wound was bisected and processed as described above (3.1.3). 7 μm paraffin-embedded sections were strained with H&E and Masson's Trichrome. The rate of re-epithelialisation (at day 7 post-wounding), and wound sizes as determined by planimetry, were determined with image analysis using an Olympus Vanox camera and PC image capture system. Collagen quantity within the wound was determined by two observers blinded to the identity of the specimen on the following scale +=minimal quantities; ++=less than normal skin; +++=similar to normal skin; ++++=greater than normal skin. The wound stiffness at day 80 was determined using the non-disruptive Dimensional Analysis System (Das). Previous studies have correlated wound breaking strength values (ultimate pressure at failure) to wound stiffness using this system. The system applies a multiaxial load (negative pressure) to the wound and measures the deformation due to the load of two reflective targets placed at the wound edges, using a high resolution camera and video processor. Pressure was applied to a maximum of 100 mmHg and then released, Stiffness was measured between 20 and 80 mmHg.

[3] = 0.1% oestradiol with 0.1% cyclodextrin vehicle, single 100 μl intradermal injection, OVX rats
[4] = 0.1% oestradiol with 0.1% cyclodextrin vehicle, single 100 μl intradermal injection, SHAM rats
[5] = 1% oestradiol with 1% cyclodextrin vehicle, single 100 μl intradermal injection, OVX rats
[6] = 1% oestradiol with 1% cyclodextrin vehicle, single 100 μl intradermal injection, SHAM rats

| SMILES | rate of wound repair (wound repair) | CELLS [1, 3] | EPITHELIALISATION [1, 3] | NEW COLLAGEN [1, 3] | WOUND WIDTH [1, 3] | EPITHELIALISATION [1, 4] | WOUND WIDTH [1, 4] | EPITHELIALISATION [1, 5] | WOUND WIDTH [1, 5] | EPITHELIALISATION [1, 6] | WOUND WIDTH [1, 6] | rate of wound healing ([1]; 1% β-oestradiol, OVX group wounds, compared to control PBS treated and unmanipulated wounds) | rate of wound healing ([1]; single application of 0.1% β-oestradiol, OVX wounds, compared to control wounds) | rate at which the wound heals [2] |
| --- | --- | --- | --- | --- | --- | --- | --- | --- | --- | --- | --- | --- | --- | --- |
| C[C@]12CC[C@H](O)CC1=CC[C@@H]1[C@@H]2CC[C@]2(C)C(=O)CC[C@@H]12 [DHEA, Dehydroepiandrosterone] | stimulating the rate of wound repair |  |  |  |  |  |  |  |  |  |  |  |  |  |
| C[C@]12CC[C@@H]3c4ccc(O)cc4CC[C@H]3[C@@H]1CC[C@@H]2O [OESTRADIOL, 17 β-oestradiol] |  | + | Y | ++++ | narrow | Y | narrow | Y | narrow | Y | wide | increased rate of wound healing | accelerated wound healing | sufficient to improve the rate at which the wound heals |
